In PMC10513951, “Identification of a dihydroorotate dehydrogenase inhibitor that inhibits cancer cell growth by proteomic profiling” (Oncology Research, 2023):

Biological target: T1, dihydroorotate dehydrogenase (DHODH) (Homo sapiens, UniProt Q02127)
T1 construct: N-terminal His-tagged DHODH/ΔTM; Met29–Arg395
Test: DCIP reduction enzyme assay with recombinant human DHODH
Assay type: biochemical

T1 sequence (Q02127 29-395): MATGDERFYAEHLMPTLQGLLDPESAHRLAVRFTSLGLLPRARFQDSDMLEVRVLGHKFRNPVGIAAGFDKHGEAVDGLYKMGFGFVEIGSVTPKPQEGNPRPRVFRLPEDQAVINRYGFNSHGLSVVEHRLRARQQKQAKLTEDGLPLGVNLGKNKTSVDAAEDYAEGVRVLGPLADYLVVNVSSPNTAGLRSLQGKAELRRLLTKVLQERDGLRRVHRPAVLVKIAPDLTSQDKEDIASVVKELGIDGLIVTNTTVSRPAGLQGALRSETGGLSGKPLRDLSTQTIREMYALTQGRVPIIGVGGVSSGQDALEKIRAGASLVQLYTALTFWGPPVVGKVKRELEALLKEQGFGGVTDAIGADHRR

SMILES	IC50 [nM]
Cc1cc(=O)oc2c1ccc1oc(C(O)c3ccccc3)c(-c3ccccc3)c12 (centres unmarked) [H-006, 8-(Hydroxyphenylmethyl)-4-methyl-9-phenyl-2H-furo[2,3-h]-1-benzopyran-2-one]	3.8
Cc1cc(=O)oc2c1ccc1oc(C(=O)c3ccccc3)c(-c3ccccc3)c12 [NPD723, 8-Benzoyl-4-methyl-9-phenyl-2H-furo[2,3-h]-1-benzopyran-2-one]	1520
